Series [1] concerns Haemonchus contortus. Briefly: Method A: Haemonchus contortus L1 larval development/motility screen in microtitre plate. The series is classed as cell-based. The note with it: 96 h, read-out: motility inhibition.
Series [2] deals with Haemonchus contortus. The series is described as follows: Method E: Haemonchus contortus in vivo in Mongolian jirds. The note with it: oral gavage, 5 mg/kg, necropsy 3 days after treatment. On the procedure: Method to test activity of compounds against Haemonchus contortus in vivo in Mongolian jirds (Meriones unguiculatus).
(§1) Mongolian jirds, at least five weeks old, that have been immunosuppressed were artificially infected with ensheathed Haemonchus contortus third instar larvae. Six days after infection, the jirds were treated by oral gavage with the test compounds, dissolved in a mixture of DMSO/corn oil, at doses of 5 mg/kg. Jirds treated only with the placebo (DMSO/corn oil carrier) served as controls. On day 9 (3 days after treatment) the jirds were euthanized and necropsied for recovery of parasites from the stomach. Efficacy was calculated as the average % reduction in the number of worms in each test group compared with the average number of worms from the control group. Compound 6 provided a 100% reduction in nematode infestation in Mongolian jirds treated by oral gavage with the test article at a dose of 5 mg/kg.

Series [3] has as its system Trichostrongylus colubriformis. The series is described as follows: Method F: Trichostrongylus colubriformis in vivo in Mongolian jirds. The note with it: oral gavage, 5 mg/kg, necropsy 3 days after treatment. The procedure: as §1, with “Method to test activity of compounds against Trichostrongylus colubriformis in vivo in Mongolian jirds (Meriones unguiculatus). Mongolian jirds,” for “Mongolian jirds,”, “with ensheathed Trichostrongylus colubriformis third instar” for “with ensheathed Haemonchus contortus third instar”, “doses of […]. Jirds” for “doses of 5 mg/kg. Jirds”, “provided a 99% reduction in” for “provided a 100% reduction in”

The conditions of series [4]: human, Caco-2, pH 6.5.
Procedure: Permeability of Compounds.
An in vitro model utilizing Caco-2/TC7 cells is employed to assess the permeability characteristics of new chemical entities (NCEs).
The permeability studies were performed under standard conditions in the apical to basolateral (A→B) direction with a pH gradient and a BSA gradient (standard apical medium (0.5% BSA at pH 6.5)/standard basal medium (5% BSA at pH 7.4)); conditions that most closely reflect the conditions in the in vivo situation. Samples were deproteinized by the addition of 400 μl acetonitrile to 200 μl sample, followed by a 20-minute centrifugation at 1730 g. Compound solubilisation: compound solutions at final concentrations of 20 μM were prepared following dilutions of stock solutions (starting from 10 mM in DMSO) in HBSS. Final concentration of DMSO was adjusted to 1%. Analytical conditions: Supernatants recovered following centrifugation were analysed by LC/MS/MS using a reverse phase column and the mobile phases delivered at 0.3 ml/minute in a gradient: water (A) and acetonitrile (B) (each with 0.1% formic acid).
Every experiment (n) represents the mean of 3 filters per experiment.
Series [5] relates to microfilaria of Dirofilaria immitis. Briefly: Method C: microfilaria of Dirofilaria immitis motility screen. The series is classed as cell-based. Conditions: read-out: inhibition of the microfilaria's motility.
Series [6] concerns anthelmintic-resistant isolate of Haemonchus contortus. Briefly: Method B: screen against anthelmintic-resistant (benzimidazole-resistant) isolate of Haemonchus contortus. Conditions: benzimidazole-resistant H. contortus isolate.
Source text: The conditions described in method A were used against an isolate of H. contortus found to be functionally resistant against the benzimidazole class of anthelmintics (e.g. 127-fold resistance to thiabendazole).

The structures appear in SMILES notation. Where two headings read alike, the source gives them in different places.

The record followed here is patent US10597364B2, “Anthelmintic compounds, compositions and method of using thereof” (priority 2015, dated 2020).

Turning to `N#Cc1ccc(NC2CCC(Oc3cncc(N4CCN(c5ccc(C(F)(F)F)cn5)CC4)c3)CC2)cc1C(F)(F)F` (centres unmarked) [Compound 6, 4-[[4-[(5-[4-[5-(trifluoromethyl)pyridin-2-yl]piperazin-1-yl]pyridin-3-yl)oxy]cyclohexyl]amino]-2-(trifluoromethyl)benzonitrile], the inhibition (in general, the percentage by which the read-out fell short of the control) at 5 µM in series [1] is no less than 90%. Moreover, the “reduction in nematode infestation” value was determined as 100% in series [2] and 99% in series [3]. Besides, the Papp A→B (in general, how fast a substance crosses the layer from the apical side) at 20 μM in series [4] came out at 0.64 ×10⁻⁶ cm/s.
As for `O=C(Cc1ccc(F)cc1)N1CCN(c2cncc(O[C@H]3CC[C@H](Nc4ccc([N+](=O)[O-])c(C(F)(F)F)c4)CC3)c2)CC1` [Compound 22], in series [1], the inhibition at 5 µM is no less than 90%. Besides, the inhibition at 10 µM in series [5] (10 μM, 24 hours) was no less than 90%. The molecule further registered a Papp A→B at 20 μM in series [4] of 1.57 ×10⁻⁶ cm/s.
As for `O=C(Cc1ccc(F)cc1)N1CCN(c2ccnc(O[C@H]3CC[C@H](Nc4ccc([N+](=O)[O-])c(C(F)(F)F)c4)CC3)c2)CC1` [Compound 23], in series [1], the inhibition at 5 µM was no less than 90%. Besides, the inhibition at 10 µM in series [5] (24 h) was no less than 90%. In addition, the Papp A→B at 20 μM in series [4] was 1.09 ×10⁻⁶ cm/s.
In the case of `O=C(CCC(F)(F)F)N1CCN(c2cc(O[C@H]3CC[C@H](Nc4ccc([N+](=O)[O-])c(C(F)(F)F)c4)CC3)ccn2)CC1` [Compound 24], in series [1], the inhibition at 5 µM was no less than 90%. In series [5] (24 h), the inhibition at 10 µM was no less than 90%. Also, in series [4], the apparent permeability from apical to basolateral (Papp A→B) at 20 μM stood at 4.46 ×10⁻⁶ cm/s.
Take `O=[N+]([O-])c1ccc(N[C@H]2CC[C@H](Oc3cncc(N4CCN(CC5CCCC5)CC4)c3)CC2)cc1C(F)(F)F` [Compound 27]: the inhibition at 5 µM in series [1] is no less than 90%. In addition, in series [5] (24 h), the inhibition at 10 µM was no less than 90%. Moreover, the Papp A→B at 20 μM in series [4] came out at 2.33 ×10⁻⁶ cm/s.
As for `CC(C)(C)OC(=O)N1CCN(c2cc(O[C@H]3CC[C@H](Nc4ccc([N+](=O)[O-])c(C(F)(F)F)c4)CC3)ccn2)CC1` [Compound 34], in series [1], the inhibition at 5 µM was no less than 90%. Further, the inhibition at 5 ppm in series [5] (24 h) was no less than 90%. The molecule also showed an apical-to-basolateral permeability (Papp A→B) at 20 μM in series [4] of 1.77 ×10⁻⁶ cm/s.
`CC(C)(C)CC(=O)N1CCN(c2cncc(O[C@H]3CC[C@H](Nc4ccc([N+](=O)[O-])c(C(F)(F)F)c4)CC3)c2)CC1` [Compound 35]: the inhibition at 5 µM in series [1] was no less than 90%. Further, the inhibition at 5 ppm in series [5] (24 h) was no less than 90%. In series [4], this molecule had an apical-to-basolateral permeability (Papp A→B) at 20 μM of 4.99 ×10⁻⁶ cm/s.
For the molecule `CCCOC(=O)N1CCN(c2ccnc(O[C@H]3CC[C@H](Nc4ccc([N+](=O)[O-])c(C(F)(F)F)c4)CC3)c2)CC1` [Compound 36], in series [1], the inhibition at 5 µM was no less than 90%. In addition, the inhibition at 10 µM in series [5] (24 h) was no less than 90%. In series [4], this molecule registered an apical-to-basolateral permeability (Papp A→B) at 20 μM of 2.41 ×10⁻⁶ cm/s.
`O=[N+]([O-])c1ccc(N[C@H]2CC[C@H](Oc3ccnc(N4CCN(CC5CCCC5)CC4)c3)CC2)cc1C(F)(F)F` [Compound 37, 4-nitro-N-[4-([2-[4-(cyclopentylmethyl)piperazin-1-yl]pyridin-4-yl]oxy)cyclohexyl]-3-(trifluoromethyl)]: the inhibition at 5 µM in series [1] was no less than 90%. For the same molecule, the inhibition at 10 µM in series [5] (24 h) is no less than 90%. In series [4], the Papp A→B at 20 μM was determined as 2.55 ×10⁻⁶ cm/s.
As to `c1ccc2[nH]c(-c3cscn3)nc2c1` [thiabendazole], the “resistance of the isolate to thiabendazole” value in series [6] is 127 fold.
